Experimental data as given in US20240335486A1, “COMPOSITION FOR REARING ORGANISM BELONGING TO ORDER DECAPODA AND COMPOSITION FOR PREVENTING OR TREATING INFECTION IN DECAPODS” (SUMITOMO CHEMICAL COMPANY, LIMITED, priority 2021, published 2024).

Legend:
Assay in all cases: Antibacterial activity of lactic acid cell culture products (plate culture, filter paper disk)
Type in all cases: cell-based
[1] = test system: V. nigripulchritudo TUMSAT-OK1 strain; details: Vibrio nigripulchritudo on Marine agar; disk with 20 μL culture filtrate (ampicillin 100 μg/mL); 25° C., 24 hours; read-out: diameter of the growth-inhibitory zone
Experimental: (§1) Examination was performed on whether the cell culture products of NITE BP-03199, NITE BP-03200, and NITE BP-03201 have antibacterial activity to Vibrio bacteria. The V. parahaemolyticus TUMSAT-D6 strain (AHPND strain), V. nigripulchritudo TUMSAT-OK1 strain, and V. pengeicida TUMSAT-OG1 strain were used as Vibrio bacteria.
(§2) With reference to FIG. 4, the experimental method will be described. With a bacteria spreader, 100 μL of a bacterial solution 11 of a Vibrio bacterium (approximately 10^8 cfu/mL) was smeared on agar medium 12. The agar medium used was Marine agar (Difco). A filter paper disk 15 was impregnated with 20 μL of a lactic acid bacterial culture filtrate 13, and placed on the agar medium with a Vibrio bacterium smeared thereon. The lactic acid bacterial culture filtrate (cell culture product) was a solution obtained through a process that any lactic acid bacterium of NITE BP-03199, NITE BP-03200, and NITE BP-03201 was cultured with MRS Broth at a temperature of 30° C. and the culture supernatant was filtered through a filter having a pore size of 0.22 μm. The turbidity of each lactic acid bacterial culture solution at a wavelength of 600 nm was approximately 10 OD. The agar medium with filter paper disk 15 placed thereon was subjected to culture at 25° C. for 24 hours, and the diameter (mm) of a growth-inhibitory zone 14 was measured. Each numerical value shown in Table 7 indicates the diameter (mm) of the growth-inhibitory zone. A filter paper disk was impregnated with medium for lactic acid bacteria (MRS Broth) as a negative control, and another one was impregnated with the antibiotic ampicillin (100 μg/mL) as a positive control.

[2] = test system: V. parahaemolyticus TUMSAT-D6 strain (AHPND strain); details: Vibrio parahaemolyticus on Marine agar; disk with 20 μL culture filtrate (ampicillin 100 μg/mL); 25° C., 24 hours; read-out: diameter of the growth-inhibitory zone
Experimental: as §1, §2

[3] = test system: V. pengeicida TUMSAT-OG1 strain; details: Vibrio penaeicida on Marine agar; disk with 20 μL culture filtrate (ampicillin 100 μg/mL); 25° C., 24 hours; read-out: diameter of the growth-inhibitory zone
Experimental: as §1, §2

SMILES: CC1(C)S[C@@H]2[C@H](NC(=O)[C@H](N)c3ccccc3)C(=O)N2[C@H]1C(=O)O [Ampicillin, ampicillin]
- zone of inhibition at 100 µg/mL [1]: 29 mm
- zone of inhibition at 100 µg/mL [2]: 28 mm
- zone of inhibition at 100 µg/mL [3]: 37 mm
